According to patent US7705003B2, “Cyclohexylamides as dopamine D3, D2 and 5-HT1A Antagonists” (Richter Gedeon Vegyeszeti Gyar RT., priority 2005, dated 2010):

Legend:
[1] = molecular target: T1, rat recombinant D3 receptors (Rattus norvegicus, UniProt P19020); assay: D3 receptor binding ([3H]spiperone); details: rat recombinant D3 receptors expressed in Sf9 cells
T1 construct: purchased Perkin-Elmer 6110139; host or cells: Sf9 cells

[2] = molecular target: α1 receptor; assay: α-1 receptor binding ([3H]-prazosine, rat cortical membrane)
Description: α1 receptor binding study was performed according to the methods described by Greengrass and Bremner (Eur. J. Pharmacol., 55:323-326, 1979) on rat cortical membrane preparation using [^3H]-prazosine (0.22-0.37 nM) as ligand. The non-specific binding was determined in the presence of 10 μM phentolamine.

[3] = molecular target: D2 receptor (Rattus norvegicus, UniProt P61169); assay: D2 receptor binding ([3H]spiperone, rat brain striatal membrane)
Description: Non-specific binding was determined in the presence of 1 μM (+) butaclamol.

[4] = molecular target: T2, 5-HT1A receptor (Rattus norvegicus, UniProt P19327); assay: 5-HT1A binding ([3H]8-OH-DPAT, rat hippocampal membrane); details: [3H]8-hydroxy-2-(di-n-propylamino)-tetralin
T2 construct: on rat hippocampal membrane preparation; from tissue; host or cells: rat hippocampus membranes
T2 sequence (P19327 1-422): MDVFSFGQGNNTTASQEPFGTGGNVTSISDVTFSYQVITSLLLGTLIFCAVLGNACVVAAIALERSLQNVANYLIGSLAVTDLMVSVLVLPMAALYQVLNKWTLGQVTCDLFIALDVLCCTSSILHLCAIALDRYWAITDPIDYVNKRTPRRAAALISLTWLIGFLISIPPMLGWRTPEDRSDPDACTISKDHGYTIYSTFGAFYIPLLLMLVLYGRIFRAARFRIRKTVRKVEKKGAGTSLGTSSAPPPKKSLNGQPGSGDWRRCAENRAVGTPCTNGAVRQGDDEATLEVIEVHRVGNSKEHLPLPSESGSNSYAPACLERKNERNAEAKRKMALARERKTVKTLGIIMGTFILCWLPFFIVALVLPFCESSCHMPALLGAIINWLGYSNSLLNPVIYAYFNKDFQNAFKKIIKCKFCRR
Description: The non-specific binding was determined in the presence of 10 μM serotonin creatinine sulphate.

[5] = test system: Male CD-1 mice; assay: Inhibition of apomorphine induced climbing; type: in vivo; details: for ED50: Mus musculus; for ranking of activity in apomorphine climbing assay: apomorphine climbing in mice
Description: With respect to the expected clinical application of the compounds of the present invention in addition to their receptor binding profile their in vivo efficacy is a crucial issue as well. Therefore, in vivo potency and efficacy of the compounds of formula (I) were studied in the apomorphine climbing assay, an animal screening test for antipsychotic activity.
5. Inhibition of Apomorphine Induced Climbing
Male CD-1 mice weighing 20-25 g were injected orally (n=12) with the test compound or vehicle. Fifty minutes later the animals were placed into cylindrical cages with walls of vertical metal bars. After 10 minutes habituation the mice were treated with apomorphine (1.5 mg/kg sc.). […] Scores were summed for each individual and group means were calculated. Drug effect was expressed and plotted as percentage inhibition of the apomorphine induced behaviour.

T1 sequence (P19020 whole entry): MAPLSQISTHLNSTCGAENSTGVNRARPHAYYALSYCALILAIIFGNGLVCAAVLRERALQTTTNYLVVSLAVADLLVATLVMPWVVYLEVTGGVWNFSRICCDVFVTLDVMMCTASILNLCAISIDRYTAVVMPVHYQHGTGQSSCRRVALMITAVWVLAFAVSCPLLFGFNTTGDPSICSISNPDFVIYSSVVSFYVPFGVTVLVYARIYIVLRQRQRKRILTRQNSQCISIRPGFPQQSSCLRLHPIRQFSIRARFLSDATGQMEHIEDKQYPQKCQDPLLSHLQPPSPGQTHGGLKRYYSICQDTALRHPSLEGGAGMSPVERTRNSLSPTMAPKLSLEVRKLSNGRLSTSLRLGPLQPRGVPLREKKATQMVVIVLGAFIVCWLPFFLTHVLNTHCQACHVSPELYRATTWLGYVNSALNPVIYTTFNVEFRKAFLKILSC
D2 receptor, sequence (P61169 1-415 isoform P61169-2): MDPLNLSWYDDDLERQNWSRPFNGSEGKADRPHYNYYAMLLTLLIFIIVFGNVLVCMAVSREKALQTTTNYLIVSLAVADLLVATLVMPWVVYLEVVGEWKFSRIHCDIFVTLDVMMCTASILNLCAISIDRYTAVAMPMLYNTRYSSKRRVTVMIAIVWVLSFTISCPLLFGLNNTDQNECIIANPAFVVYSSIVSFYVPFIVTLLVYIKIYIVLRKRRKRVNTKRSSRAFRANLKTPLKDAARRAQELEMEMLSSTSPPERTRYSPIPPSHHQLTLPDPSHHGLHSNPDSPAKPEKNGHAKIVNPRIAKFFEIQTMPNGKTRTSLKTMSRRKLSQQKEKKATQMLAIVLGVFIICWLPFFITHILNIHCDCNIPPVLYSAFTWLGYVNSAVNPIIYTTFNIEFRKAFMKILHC

Structure (SMILES) | IC50 [1] | IC50 [2] | IC50 [3] | IC50 [4] | melting point | ED50 [5] | ranking of activity in apomorphine climbing assay [5]
CN(C)C(=O)N[C@H]1CC[C@H](CN2CCN(c3cccc4c3CCC4)CC2)CC1 [Compound 8, trans-1-{4-[[4-(indan-4-yl)-piperazin-1-yl]-methyl]-cyclohexyl}-3,3-dimethyl-urea] | – | – | – | – | 152 to 154 °C | – | –
NC(=O)N[C@H]1CC[C@H](CCN2CCN(c3cccc4c3CCC4)CC2)CC1 [Compound 7, trans-1-{4-[2-[4-(indan-4-yl)-piperazin-1-yl]-ethyl]-cyclohexyl}-urea] | – | – | – | – | 204 to 206 °C | – | –
O=C1CCc2ccc(OCCCCN3CCN(c4cccc(Cl)c4Cl)CC3)cc2N1 [Aripiprazole, reference compound] | – | – | – | – | – | 1 mg/kg | –
CCNC(=O)N[C@H]1CC[C@H](CCN2CCN(c3cccc4c3CCC4)CC2)CC1 [Compound 5, trans-1-{4-[2-[4-(indan-4-yl)-piperazin-1-yl]-ethyl]-cyclohexyl}-3-ethyl-urea] | < 2 nM | 40 to 200 nM | 10 to 40 nM | 1 to 20 nM | 198 to 200 °C | 0.47 mg/kg | –
Cc1cc2c(s1)Nc1ccccc1N=C2N1CCN(C)CC1 [Olanzapine, reference compound] | – | – | – | – | – | 1.3 mg/kg | –
CN(C)C(=O)N[C@H]1CC[C@H](CCN2CCN(c3cccc4c3CCC4)CC2)CC1 [Compound 3, trans-1-{4-[2-[4-(indan-4-yl)-piperazin-1-yl]-ethyl]-cyclohexyl}-3,3-dimethyl-urea] | < 2 nM | 40 to 200 nM | 10 to 40 nM | 1 to 20 nM | 150 to 152 °C | 0.11 mg/kg | most active
O=C(N[C@H]1CC[C@H](CCN2CCN(c3cccc4c3CCCC4)CC2)CC1)N1CCOCC1 [Compound 12, trans-N-{4-[2-[4-(5,6,7,8-tetrahydronaphthalen-1-yl)-piperazin-1-yl]-ethyl]-cyclohexyl}-morpholine-4-carboxamide] | < 2 nM | 40 to 200 nM | 10 to 40 nM | 1 to 20 nM | 178 to 180 °C | 0.2 mg/kg | –
CC(=O)N[C@H]1CC[C@H](CCN2CCN(c3cccc4c3CCCC4)CC2)CC1 [Compound 9, trans-N-{4-[2-[4-(5,6,7,8-tetrahydronaphthalen-1-yl)-piperazin-1-yl]-ethyl]-cyclohexyl}-acetamide] | < 2 nM | > 200 nM | 10 to 40 nM | 1 to 20 nM | 187 to 189 °C | 0.26 mg/kg | –
CCN(CC)C(=O)N[C@H]1CC[C@H](CCN2CCN(c3cccc4c3CCC4)CC2)CC1 [Compound 4, trans-1-{4-[2-[4-(indan-4-yl)-piperazin-1-yl]-ethyl]-cyclohexyl}-3,3-diethyl-urea] | < 2 nM | 40 to 200 nM | 10 to 40 nM | 1 to 20 nM | 157 to 159 °C | 0.46 mg/kg | –

More lines, main results first:

IC50 [1] | IC50 [2] | IC50 [3] | IC50 [4] | melting point | Structure (SMILES) | ED50 [5] | ranking of activity in apomorphine climbing assay [5]
< 2 nM | > 200 nM | 10 to 40 nM | 1 to 20 nM | 182 to 185 °C | CCC(=O)N[C@H]1CC[C@H](CCN2CCN(c3cccc4c3CCCC4)CC2)CC1 [Compound 10, trans-N-{4-[2-[4-(5,6,7,8-tetrahydronaphthalen-1-yl)-piperazin-1-yl]-ethyl]-cyclohexyl}-propionamide] | 0.35 mg/kg | –
< 2 nM | 40 to 200 nM | 10 to 40 nM | 1 to 20 nM | 181 to 182 °C | O=C(N[C@H]1CC[C@H](CCN2CCN(c3cccc4c3CCC4)CC2)CC1)N1CCOCC1 [Compound 6, trans-N-{4-[2-[4-(indan-4-yl)-piperazin-1-yl]-ethyl]-cyclohexyl}-morpholine-4-carboxamide] | 0.16 mg/kg | most active
< 2 nM | 40 to 200 nM | 10 to 40 nM | 1 to 20 nM | 190 to 193 °C | CN(C)C(=O)N[C@H]1CC[C@H](CCN2CCN(c3cccc4c3CCCC4)CC2)CC1 [Compound 11, trans-1-{4-[2-[4-(5,6,7,8-tetrahydronaphthalen-1-yl)-piperazin-1-yl]-ethyl]-cyclohexyl}-3,3-dimethyl-urea] | 0.23 mg/kg | –
< 2 nM | 40 to 200 nM | 10 to 40 nM | 1 to 20 nM | 202 to 204 °C | CC(=O)N[C@H]1CC[C@H](CCN2CCN(c3cccc4c3CCC4)CC2)CC1 [Compound 1, trans-N-{4-[2-[4-(indan-4-yl)-piperazin-1-yl]-ethyl]-cyclohexyl}-acetamide] | 0.14 mg/kg | most active
< 2 nM | 40 to 200 nM | 10 to 40 nM | 1 to 20 nM | 194 to 196 °C | CCC(=O)N[C@H]1CC[C@H](CCN2CCN(c3cccc4c3CCC4)CC2)CC1 [Compound 2, trans-N-{4-[2-[4-(indan-4-yl)-piperazin-1-yl]-ethyl]-cyclohexyl}-propionamide] | 0.21 mg/kg | –
